Test results reported in patent publication US20200268702A1, “METHODS OF TREATING […]” (Amarin Pharmaceuticals Ireland Limited, priority 2013, published 2020).

Tested on: patients with fasting triglyceride levels >500 mg/dL
Assay: MARINE study: 12-week placebo-controlled study of AMR101, metabolic syndrome subset
Type: in vivo, human
Settings: 4 g/day, 12 weeks, subjects with metabolic syndrome
Description: A multi-center, placebo-controlled randomized, double-blind, 12-week study with an open-label extension was performed to evaluate the efficacy and safety of AMR101 in patients with fasting triglyceride levels >500 mg/dL. The primary objective of the study was to determine the efficacy of AMR101 2 g daily and 4 g daily, compared to placebo, in lowering fasting TG levels in patients with fasting TG levels 500 mg/dL and 1500 mg/dL (5.65 mmol/L and 16.94 mmol/L).
The population for this study was men and women (women of childbearing potential will need to be on contraception or practice abstinence) >18 years of age with a body mass index ≤45 kg/m^2 who were not on lipid-altering therapy or were currently on lipid-altering therapy. Patients currently on statin therapy (with or without ezetimibe) were evaluated by the investigator as to whether this therapy can be safely discontinued at screening, or if it should be continued. If statin therapy (with or without ezetimibe) was to be continued, dose(s) must have been stable […] prior to randomization. Patients taking non-statin, lipid-altering medications (niacin >200 mg/day, fibrates, fish oil, other products containing omega-3 fatty acids, or other herbal products or dietary supplements with potential lipid-altering effects), either alone or in combination with statin therapy (with or without ezetimibe), must have been able to safely discontinue non-statin, lipid-altering therapy at screening.
Approximately 240 patients were randomized at approximately 50 centers in North America, South America, Central America, Europe, India, and South Africa. The study was a 58- to 60-week, Phase 3, multi-center study consisting of 3 study periods: (1) A 6- to 8-week screening period that included a diet and lifestyle stabilization and washout period and a TG qualifying period; (2) A 12-week, double-blind, randomized, placebo-controlled treatment period; and (3) A 40-week, open-label, extension period.
After confirmation of qualifying fasting TG values, eligible patients entered a 12-week, randomized, double-blind treatment period. At Visit 4 (Week 0), patients were randomly assigned to 1 of the following treatment groups: • AMR101 2 g daily, • AMR101 4 g daily, or • Placebo.
Eligible patients were randomly assigned at Visit 4 (Week 0) to receive orally AMR101 2 g daily, AMR101 4 g daily, or placebo for the 12-week double-blind treatment period. AMR101 was provided in 1 g liquid-filled, oblong, gelatin capsules. The matching placebo capsule was filled with light liquid paraffin and contained 0 g of AMR101. During the double-blind treatment period, patients took 2 capsules (AMR101 or matching placebo) in the morning and 2 in the evening for a total of 4 capsules per day. Patients in the AMR101 2 g/day treatment group received 1 AMR101 1 g capsule and 1 matching placebo capsule in the morning and in the evening. Patients in the AMR101 4 g/day treatment group received 2 AMR101 1 g capsules in the morning and evening.
The primary efficacy variable for the double-blind treatment period was percent change in TG from baseline to Week 12 endpoint. […]

CC/C=C\C/C=C\C/C=C\C/C=C\C/C=C\CCCC(=O)OCC [AMR101, ethyl eicosapentaenoate]
Apo B, End of Treatment, median (IQR) (No statins): 123 mg/dL | Apo B, Median % Change From Baseline vs Placebo (No statins): −9.2% | HDL-C, Change from Baseline, % (No statins): 0.0% | HDL-C, End of Treatment, median (IQR) (No statins): 25 mg/dL | HDL-C, Median % Change From Baseline vs Placebo (No statins): −4.2% | LDL-C, Change from Baseline, % (No statins): −1.5% | LDL-C, End of Treatment, median (IQR) (No statins): 92 mg/dL | LDL-C, Median % Change From Baseline vs Placebo (No statins): −2.0% | Non-HDL-C, Change from Baseline, % (No statins): −9.9% | Non-HDL-C, End of Treatment, median (IQR) (No statins): 220 mg/dL | Non-HDL-C, Median % Change From Baseline vs Placebo (No statins): −18.5% | TG, Change from Baseline, % (No statins): −26.6% | TG, End of Treatment, median (IQR) (No statins): 582 mg/dL | TG, Median % Change From Baseline vs Placebo (No statins): −28.5% | hsCRP, Change from Baseline, % (No statins): 0.0% | hsCRP, End of Treatment, median (IQR) (No statins): 2.3 (2.30) mg/L | hsCRP, Median % Change From Baseline vs Placebo (No statins): −78.0% | hsCRP, Median % Change From Baseline vs Placebo (No statins, listed as IPE): −27.6% | Apo B, Change from Baseline, % (Statins): −1.6% | Apo B, End of Treatment, median (IQR) (Statins): 100 mg/dL | Apo B, Median % Change From Baseline vs Placebo (Statins): −9.0% | HDL-C, Change from Baseline, % (Statins): −5.2% | HDL-C, End of Treatment, median (IQR) (Statins): 29 mg/dL | HDL-C, Median % Change From Baseline vs Placebo (Statins): 0.3% | LDL-C, Change from Baseline, % (Statins): −11.4% | LDL-C, End of Treatment, median (IQR) (Statins): 72.5 mg/dL | LDL-C, Median % Change From Baseline vs Placebo (Statins): −4.3% | Non-HDL-C, Change from Baseline, % (Statins): −7.6% | Non-HDL-C, End of Treatment, median (IQR) (Statins): 172 mg/dL | Non-HDL-C, Median % Change From Baseline vs Placebo (Statins): −27.4% | TG, Change from Baseline, % (Statins): −29.1% | TG, End of Treatment, median (IQR) (Statins): 457 mg/dL | TG, Median % Change From Baseline vs Placebo (Statins): −62.6% | hsCRP, Change from Baseline, % (Statins): −35.1% | hsCRP, End of Treatment, median (IQR) (Statins): 2.7 (3.70) mg/L | hsCRP, Median % Change From Baseline vs Placebo (Statins): −27.6% | hsCRP, Median % Change From Baseline vs Placebo (Statins, listed as IPE): −78.0% | Apo B, Change from Baseline, % (Total): −3.5% | Apo B, End of Treatment, median (IQR) (Total): 120 mg/dL | HDL-C, Change from Baseline, % (Total): 0.0% | HDL-C, End of Treatment, median (IQR) (Total): 26 mg/dL | HDL-C, Median % Change From Baseline vs Placebo (Total): −3.0% | LDL-C, Change from Baseline, % (Total): −4.1% | LDL-C, End of Treatment, median (IQR) (Total): 89 mg/dL | Non-HDL-C, Change from Baseline, % (Total): −9.6% | Non-HDL-C, End of Treatment, median (IQR) (Total): 207 mg/dL | TG, Change from Baseline, % (Total): −26.8% | TG, End of Treatment, median (IQR) (Total): 504 mg/dL | hsCRP, Change from Baseline, % (Total): −2.9% | hsCRP, End of Treatment, median (IQR) (Total): 2.4 (2.95) mg/L | Apo B, Median % Change From Baseline vs Placebo (Total, listed as IPE): −9.1% | LDL-C, Median % Change From Baseline vs Placebo (Total, listed as IPE): −3.2% | Non-HDL-C, Median % Change From Baseline vs Placebo (Total, listed as IPE): −19.9% | TG, Median % Change From Baseline vs Placebo (Total, listed as IPE): −35.0% | hsCRP, Median % Change From Baseline vs Placebo (Total, listed as IPE): −40.0%
